According to US6403628B1 (dated 2002):

| Structure (SMILES) | melting point [°C] |
| --- | --- |
| CC(=O)c1nn(-c2c(Cl)cc(C(F)(F)F)cc2Cl)c(N)c1[S+](C)[O-] (centres unmarked) | 166 |
| CC(=O)c1nn(-c2c(Cl)cc(C(F)(F)F)cc2Cl)c(NSC(F)(F)F)c1[S+](C)[O-] (centres unmarked) | 67 to 102 |
| CSc1c(C(C)=O)nn(-c2c(Cl)cc(C(F)(F)F)cc2Cl)c1N | 113 |
| CC[S+]([O-])c1c(C(C)=O)nn(-c2c(Cl)cc(C(F)(F)F)cc2Cl)c1N (centres unmarked) | 189 |
| CCNc1c([S+](C)[O-])c(C(C)=O)nn1-c1c(Cl)cc(C(F)(F)F)cc1Cl (centres unmarked) | 123 |
| CNc1c([S+](C)[O-])c(C(C)=O)nn1-c1c(Cl)cc(C(F)(F)F)cc1Cl (centres unmarked) | 126 |
| CCS(=O)(=O)CCNc1c([S+](C)[O-])c(C(C)=O)nn1-c1c(Cl)cc(C(F)(F)F)cc1Cl (centres unmarked) | 102 |
| CC(=O)c1nn(-c2c(Cl)cc(C(F)(F)F)cc2Br)c(N)c1[S+](C)[O-] (centres unmarked) | 153 |
